We go through 11 compounds from ChEMBL document CHEMBL5325486, “Synthesis of novobiocin derivatives and evaluation of their antigonococcal activity and pharmacokinetics” (Bioorg Med Chem, 2023).

The structures appear in SMILES notation. ≈ marks a conversion by molar mass, not a printed value.

Data set [1] deals with Neisseria gonorrhoeae. Description: Antibacterial activity against Neisseria gonorrhoeae clinical isolate assessed inhibition of bacterial growth. The class given is functional.
Data set [2] in a line: Aqueous solubility of compound in acidic JP1 solution. The class given is physicochemical.
Data set [3] can be described thus: Aqueous solubility of compound in neutral JP2 solution. In kind it is physicochemical.
A short description of data set [4]: Metabolic stability in mouse liver microsomes assessed as residual rate. The class given is ADME, Microsome. (Liver microsomes are vesicles of endoplasmic reticulum, rich in cytochrome P450 enzymes.)
Data set [5] in a line: Effective permeability of compound by PAMPA assay. In kind it is ADME. To be noted: read-out: Peff.
Another data set concerns Staphylococcus aureus. As to the kind of experiment: Antibacterial activity against Staphylococcus aureus assessed inhibition of bacterial growth. In kind it is functional.
In data set [6] the test system is Neisseria gonorrhoeae. As to the kind of experiment: Antibacterial activity against resistant Neisseria gonorrhoeae assessed inhibition of bacterial growth. The class given is functional.
Data set [7] has as its system Neisseria gonorrhoeae. Description: Antibacterial activity against azithromycin resistant Neisseria gonorrhoeae assessed inhibition of bacterial growth. In kind it is functional.
The subject of data set [8] is Neisseria gonorrhoeae. Description: Antibacterial activity against ceftriaxone intermediate resistant Neisseria gonorrhoeae assessed inhibition of bacterial growth. The class given is functional.
The mark [9] stands for this setting: JP1 solution, read-out: solubility.
The mark [10] stands for this setting: JP2 solution, read-out: solubility.

For `O=c1ccc2ncc(=O)n3c2n1C[C@H]3CN1CCC(NCc2cc3c(cn2)OCCC3)CC1` [GEPOTIDACIN], in the data set on Neisseria gonorrhoeae [1], the MIC90 (as a rule, an inhibitory concentration at the 90% level, which refers to growth in some studies and to a panel of isolates in others) was found to be 0.5 µg/mL (≈ 1.11 µM). Moreover, the solubility (as a rule, the dissolved amount per volume that the medium holds) in data set [2] (buffer) came out at 63.4 µM (≈ 28.4 µg/mL); in data set [3] (buffer) it was 67 µM (≈ 30.1 µg/mL). Also, the Stability in data set [4] came to 107%. For the same compound, the Papp in data set [5] came out at 4.19 ×10⁻⁶ cm/s.
On to `CO[C@@H]1[C@@H](OC(=O)c2ccc(C)[nH]2)[C@@H](O)[C@H](Oc2ccc3c(O)c(NC(=O)c4ccnc(C)c4)c(=O)oc3c2C)OC1(C)C`, for which the figures for the MIC50 against Staphylococcus aureus and against Neisseria gonorrhoeae [6] were 0.5 µg/mL (≈ 0.823 µM) and 0.25 µg/mL (≈ 0.411 µM), respectively. Moreover, the MIC90 against Staphylococcus aureus turned out to be 1 µg/mL (≈ 1.65 µM); in the data set on Neisseria gonorrhoeae [6], 0.5 µg/mL (≈ 0.823 µM). Moreover, the solubility in [2] (setting [9]) was determined as 55 µM (≈ 33.4 µg/mL); in [3] (setting [10]), 71.8 µM (≈ 43.6 µg/mL). Moreover, the Stability in data set [4] came out at 120%. Further, in [5], the Papp turned out to be 0.349 ×10⁻⁶ cm/s.
As for `CO[C@@H]1[C@@H](OC(=O)c2ccc(C)[nH]2)[C@@H](O)[C@H](Oc2ccc3c(O)c(NC(=O)c4cn(C)cn4)c(=O)oc3c2C)OC1(C)C`, the values for the MIC50 in the data set with Staphylococcus aureus and in the data set with Neisseria gonorrhoeae [6] were 0.5 µg/mL (≈ 0.838 µM) and 0.25 µg/mL (≈ 0.419 µM), respectively. In addition, the MIC90 against Staphylococcus aureus is 0.5 µg/mL (≈ 0.838 µM); in the data set on Neisseria gonorrhoeae [1] it was 0.25 µg/mL (≈ 0.419 µM); against Neisseria gonorrhoeae [6] it was 0.5 µg/mL (≈ 0.838 µM). Also, the solubility in [2] (setting [9]) and in data set [3] (setting [10]) was over 80 µM throughout. The Stability in [4] is 119%. Besides, in data set [5], the Papp turned out to be 1.61 ×10⁻⁶ cm/s.
`CO[C@@H]1[C@@H](OC(=O)c2ccc(C)[nH]2)[C@@H](O)[C@H](Oc2ccc3c(O)c(NC(=O)c4ccc(O)c(CC=C(C)C)c4)c(=O)oc3c2C)OC1(C)C`: the results for the MIC50 against Staphylococcus aureus and with Neisseria gonorrhoeae [6] were 0.008 µg/mL (≈ 0.0118 µM) and 0.063 µg/mL (≈ 0.0931 µM), respectively. Besides, the MIC90 was 0.08 µg/mL (≈ 0.118 µM) in the data set with Staphylococcus aureus, 0.063 µg/mL (≈ 0.0931 µM) against Neisseria gonorrhoeae [1] and 0.125 µg/mL (≈ 0.185 µM) against Neisseria gonorrhoeae [6]. The minimum inhibitory concentration (MIC) (as a rule, the lowest concentration found to suppress growth) with Neisseria gonorrhoeae [7] was determined as 0.008 µg/mL (≈ 0.0118 µM); in the data set on Neisseria gonorrhoeae [8], 0.063 µg/mL (≈ 0.0931 µM). Further, the values for the solubility in data set [2] (setting [9]) and in [3] (setting [10]) were under 1 µM and 69.2 µM (≈ 46.8 µg/mL), respectively. Moreover, the Stability in [4] is reported as 92.7%. Also, the Papp in data set [5] was 10.3 ×10⁻⁶ cm/s.
On to `CO[C@@H]1[C@@H](OC(=O)c2ccc(C)[nH]2)[C@@H](O)[C@H](Oc2ccc3c(O)c(NC(=O)CCN(C)C)c(=O)oc3c2C)OC1(C)C`, for which the MIC50 (usually an inhibitory concentration at the 50% level, which refers to growth in some studies and to a panel of isolates in others) in the data set with Staphylococcus aureus was 2 µg/mL (≈ 3.4 µM); in the data set with Neisseria gonorrhoeae [6] it was 16 µg/mL (≈ 27.2 µM). Also, the MIC90 with Staphylococcus aureus is 4 µg/mL (≈ 6.81 µM); in the data set on Neisseria gonorrhoeae [6], 32 µg/mL (≈ 54.5 µM). For the same compound, the solubility in [2] (setting [9]) and in data set [3] (setting [10]) was over 100 µM throughout.
Compound `CC[C@H]1OC(=O)[C@@](C)(F)C(=O)[C@H](C)[C@@H](O[C@@H]2O[C@H](C)C[C@H](N(C)C)[C@H]2O)[C@](C)(OC)C[C@@H](C)C(=O)[C@H](C)[C@H]2N(CCCCn3cc(-c4cccc(N)c4)nn3)C(=O)O[C@]12C` [SOLITHROMYCIN] had an MIC90 in the data set on Neisseria gonorrhoeae [1] of 0.25 µg/mL (≈ 0.296 µM). The results for the solubility in data set [2] (setting [9]) and in [3] (setting [10]) were over 80 µM and 49.4 µM (≈ 41.7 µg/mL), respectively. Further, the Stability in [4] is reported as 104%. Also, in data set [5], the Papp was determined as 0.653 ×10⁻⁶ cm/s.
On to `CO[C@@H]1[C@@H](OC(=O)c2ccc(C)[nH]2)[C@@H](O)[C@H](Oc2ccc3c(O)c(NC(=O)CN(C)C)c(=O)oc3c2C)OC1(C)C`, for which the MIC50 in the data set with Staphylococcus aureus came out at 1 µg/mL (≈ 1.74 µM); in the data set with Neisseria gonorrhoeae [6], 2 µg/mL (≈ 3.49 µM). The MIC90 in the data set with Staphylococcus aureus was 2 µg/mL (≈ 3.49 µM); in the data set with Neisseria gonorrhoeae [6], 4 µg/mL (≈ 6.97 µM). For the same compound, the solubility in data set [2] (setting [9]) and in [3] (setting [10]) was over 100 µM each time.
`C=Cc1cc(C(=O)Nc2c(O)c3ccc(O[C@@H]4OC(C)(C)[C@H](OC)[C@@H](OC(=O)c5ccc(C)[nH]5)[C@H]4O)c(C)c3oc2=O)ccc1N`: the MIC50 in the data set on Staphylococcus aureus and in the data set on Neisseria gonorrhoeae [6] was 0.25 µg/mL (≈ 0.395 µM) throughout. The MIC90 in the data set on Staphylococcus aureus amounted to 0.5 µg/mL (≈ 0.789 µM); against Neisseria gonorrhoeae [1] it was 0.25 µg/mL (≈ 0.395 µM); in the data set with Neisseria gonorrhoeae [6], 0.5 µg/mL (≈ 0.789 µM). The solubility in data set [2] (setting [9]) stood at 1.79 µM (≈ 1.13 µg/mL); in data set [3] (setting [10]), 65.8 µM (≈ 41.7 µg/mL). Besides, the Stability in data set [4] is 104%. Further, the Papp in [5] was 8.06 ×10⁻⁶ cm/s.
In the data set on Neisseria gonorrhoeae [1], `C[C@@H]1CN2c3c(cc4c(N5C(=O)OC[C@@H]5C)noc4c3F)CC3(C(=O)NC(=O)NC3=O)[C@H]2[C@H](C)O1` [ZOLIFLODACIN] returned an MIC90 of 0.063 µg/mL (≈ 0.129 µM). For the same compound, the solubility in data set [2] (setting [9]) stood at 66.3 µM (≈ 32.3 µg/mL); in data set [3] (setting [10]) it was 66 µM (≈ 32.2 µg/mL). The Stability in data set [4] amounted to 94.3%. Besides, the Papp in [5] is 0.039 ×10⁻⁶ cm/s.
On to `CO[C@@H]1[C@@H](OC(=O)c2ccc(C)[nH]2)[C@@H](O)[C@H](Oc2ccc3c(O)c(NC(=O)c4ccc(C)c(C)c4)c(=O)oc3c2C)OC1(C)C`, for which the results for the MIC50 against Staphylococcus aureus and with Neisseria gonorrhoeae [6] were 0.016 µg/mL (≈ 0.0258 µM) and 0.125 µg/mL (≈ 0.201 µM), respectively. The results for the MIC90 in the data set with Staphylococcus aureus, with Neisseria gonorrhoeae [1] and in the data set with Neisseria gonorrhoeae [6] were 0.016 µg/mL (≈ 0.0258 µM), 0.25 µg/mL (≈ 0.403 µM) and 0.125 µg/mL (≈ 0.201 µM), respectively. For the same compound, the solubility is under 1 µM in data set [2] (setting [9]) and 79.1 µM (≈ 49.1 µg/mL) in [3] (setting [10]). In addition, in data set [4], the Stability was 80.8%. The Papp in data set [5] is 18 ×10⁻⁶ cm/s.
Regarding `C#CCONC(=O)O[C@H]1[C@@H](O)[C@H](Oc2ccc3c(O)c(NC(=O)c4ccc(O)c(CC=C(C)C)c4)c(=O)oc3c2C)OC(C)(C)[C@@H]1OC`, the MIC50 turned out to be 0.063 µg/mL (≈ 0.0945 µM) against Staphylococcus aureus and 0.25 µg/mL (≈ 0.375 µM) in the data set with Neisseria gonorrhoeae [6]. Also, the MIC90 in the data set on Staphylococcus aureus was found to be 0.063 µg/mL (≈ 0.0945 µM); with Neisseria gonorrhoeae [1], 0.125 µg/mL (≈ 0.187 µM); against Neisseria gonorrhoeae [6], 0.5 µg/mL (≈ 0.75 µM). Moreover, the solubility is under 1 µM in [2] (setting [9]) and 69.3 µM (≈ 46.2 µg/mL) in data set [3] (setting [10]). Moreover, in data set [4], the Stability is listed as 47.2%. For the same compound, in [5], the Papp came out at 1.14 ×10⁻⁶ cm/s.
